According to patent publication US6737383B1, “Herbicidal oxadiazolidines” (priority 1999, dated 2004):

Key:
corn = experiment: Test B pre/postemergence corn; format: in vivo, Zea mays
Method in brief: (§1)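 Herbicidal effect was estimated by eye on a ten-point control scale after plants spent twelve to sixteen days in a greenhouse following soil or foliar treatment. Foliar sprays targeted plants at one to four leaves; all doses were formulated in a non-phytotoxic solvent with surfactant.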

smallflower flatsedge = experiment: Test B flood test smallflower flatsedge; format: in vivo, Cyperus difformis
Method in brief: (§2)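 Plants were grown to the 2-leaf stage before treatment with test chemical, then held in a greenhouse for twelve to sixteen days. Injury was visually rated against untreated controls on a 0–10 scale, where 0 is no effect and 10 is complete control.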

blackgrass = experiment: Test B pre/postemergence blackgrass; format: in vivo, Alopecurus myosuroides
Method in brief: as §1

bamyardgrass = experiment: Test B flood test barnyardgrass; format: in vivo, Echinochloa crus-galli
Method in brief: as §2

cocklebur = experiment: Test B pre/postemergence cocklebur; format: in vivo, Xanthium strumarium
Method in brief: as §1

crabgrass = experiment: Test B pre/postemergence crabgrass; format: in vivo, Digitaria sanguinalis
Method in brief: as §1

surinam grass = experiment: Test B pre/postemergence surinam grass; format: in vivo, Brachiaria decumbens
Method in brief: as §1

soybean = experiment: Test B pre/postemergence soybean; format: in vivo, Glycine max
Method in brief: as §1

morningglory = experiment: Test B pre/postemergence morningglory; format: in vivo, Ipomoea hederacea
Method in brief: as §1

wild oat = experiment: Test B pre/postemergence wild oat; format: in vivo, Avena fatua
Method in brief: as §1

velvetleaf = experiment: Test B pre/postemergence velvetleaf; format: in vivo, Abutilon theophrasti
Method in brief: as §1

wheat = experiment: Test B pre/postemergence wheat; format: in vivo, Triticum aestivum
Method in brief: as §1

duck salad = experiment: Test B flood test duck salad; format: in vivo, Heteranthera limosa
Method in brief: as §2

rape = experiment: Test B pre/postemergence rape; format: in vivo, Brassica napus
Method in brief: as §1

giant foxtail = experiment: Test B pre/postemergence giant foxtail; format: in vivo, Setaria faberii
Method in brief: as §1

[1] = Postemergence, Rate 62 g/ha, scale 0 to 10, 0 is no effect, 10 is complete control
[2] = Postemergence, Rate 125 g/ha, scale of 0 to 10 where 0 is no effect and 10 is complete control
[3] = Postemergence, Rate 250 g/ha, scale of 0 to 10, 0 is no effect, 10 is complete control
[4] = Postemergence, Rate 500 g/ha, scale of 0 to 10 where 0 is no effect and 10 is complete control
[5] = Preemergence, Rate 62 g/ha, scale of 0 to 10 where 0 is no effect and 10 is complete control
[6] = Preemergence, Rate 125 g/ha, scale of 0 to 10 where 0 is no effect and 10 is complete control
[7] = Preemergence, Rate 250 g/ha, scale 0 to 10 (0 no effect, 10 complete control)
[8] = Preemergence, Rate 500 g/ha, scale of 0 to 10 where 0 is no effect and 10 is complete control
[9] = Rate 62 g/ha, flood test species, Pre-emergence, visual evaluation after twelve to sixteen days
[10] = Rate 125 g/ha, under heading Pre-emergence, flood test species, visual evaluation after twelve to sixteen days
[11] = Rate 250 g/ha, Pre-emergence (flood test species), scale 0 to 10, 0 is no effect, 10 is complete control
[12] = Rate 500 g/ha, Pre-emergence section of Table B, 0 to 10 scale (0 no effect, 10 complete control)

**Q.** Which “Plant response rating, Corn” value (corn; [1]) does the source give for `CC(C)N(C(=O)n1oc(=O)n(CC(=O)C2CCC2)c1=O)c1ccc(F)cc1` [Compound 640] here?
**A.** 0

**Q.** What about the “Plant response rating, Corn” value (corn; [2]) of the same molecule?
**A.** 0

**Q.** And the “Corn plant response rating” value (corn; [3])?
**A.** 0

**Q.** And the “Plant response rating, Corn” value (corn; [4])?
**A.** 0

**Q.** And the “Corn plant response rating” value (corn; [5])?
**A.** 0

**Q.** And the “Corn plant response rating” value (corn; [6])?
**A.** 0

**Q.** And the “Plant response rating, Corn” value (corn; [7])?
**A.** 0

**Q.** And the “Plant response rating, Corn” value (corn; [8])?
**A.** 0

**Q.** And the “Plant response rating, S. Flatsedge (0 to 10 scale, 0 is no effect, 10 is complete control)” value (smallflower flatsedge; [9])?
**A.** 0

**Q.** What about the “S. Flatsedge plant response rating (0 to 10 scale, 0 is no effect, 10 is complete control)” value (smallflower flatsedge; [10]) of the same molecule?
**A.** 0

**Q.** And the “S. Flatsedge plant response rating” value (smallflower flatsedge; [11])?
**A.** 0

**Q.** And the “S. Flatsedge plant response rating” value (smallflower flatsedge; [12])?
**A.** 0

**Q.** What about the “Plant response rating, Blackgrass” value (blackgrass; [1]) of the same molecule?
**A.** 0

**Q.** What about the “Plant response rating, Blackgrass” value (blackgrass; [2]) of the same molecule?
**A.** 4

**Q.** And the “Plant response rating, Blackgrass” value (blackgrass; [4])?
**A.** 5

**Q.** And the “Blackgrass plant response rating” value (blackgrass; [5])?
**A.** 0

**Q.** And the “Blackgrass plant response rating” value (blackgrass; [6])?
**A.** 0

**Q.** What about the “Plant response rating, Blackgrass” value (blackgrass; [7]) of the same molecule?
**A.** 0

**Q.** And the “Plant response rating, Blackgrass” value (blackgrass; [8])?
**A.** 8

**Q.** And the “Plant response rating, Barnyardgrass (0 to 10 scale, 0 is no effect, 10 is complete control)” value (bamyardgrass; [9])?
**A.** 0

**Q.** And the “Barnyardgrass plant response rating (0 to 10 scale, 0 is no effect, 10 is complete control)” value (bamyardgrass; [10])?
**A.** 0

**Q.** And the “Barnyardgrass plant response rating” value (bamyardgrass; [11])?
**A.** 0

**Q.** What about the “Barnyardgrass plant response rating” value (bamyardgrass; [12]) of the same molecule?
**A.** 0

**Q.** What about the “Plant response rating, Cocklebur” value (cocklebur; [1]) of the same molecule?
**A.** 0

**Q.** And the “Plant response rating, Cocklebur” value (cocklebur; [2])?
**A.** 0

**Q.** What about the “Cocklebur plant response rating” value (cocklebur; [3]) of the same molecule?
**A.** 2

**Q.** And the “Plant response rating, Cocklebur” value (cocklebur; [4])?
**A.** 5

**Q.** What about the “Cocklebur plant response rating” value (cocklebur; [5]) of the same molecule?
**A.** 0

**Q.** What about the “Cocklebur plant response rating” value (cocklebur; [6]) of the same molecule?
**A.** 0

**Q.** What about the “Plant response rating, Cocklebur” value (cocklebur; [7]) of the same molecule?
**A.** 0

**Q.** What about the “Plant response rating, Cocklebur” value (cocklebur; [8]) of the same molecule?
**A.** 0

**Q.** What about the “Plant response rating, Crabgrass” value (crabgrass; [1]) of the same molecule?
**A.** 0

**Q.** What about the “Plant response rating, Crabgrass” value (crabgrass; [2]) of the same molecule?
**A.** 2

**Q.** And the “Crabgrass plant response rating” value (crabgrass; [3])?
**A.** 3

**Q.** What about the “Plant response rating, Crabgrass” value (crabgrass; [4]) of the same molecule?
**A.** 6

**Q.** And the “Crabgrass plant response rating” value (crabgrass; [5])?
**A.** 3

**Q.** And the “Crabgrass plant response rating” value (crabgrass; [6])?
**A.** 3

**Q.** What about the “Plant response rating, Crabgrass” value (crabgrass; [7]) of the same molecule?
**A.** 9

**Q.** What about the “Plant response rating, Crabgrass” value (crabgrass; [8]) of the same molecule?
**A.** 10

**Q.** And the “Plant response rating, B. signalgrass” value (surinam grass; [1])?
**A.** 0

**Q.** And the “Plant response rating, B. signalgrass” value (surinam grass; [2])?
**A.** 0

**Q.** What about the “B. signalgrass plant response rating” value (surinam grass; [3]) of the same molecule?
**A.** 0

**Q.** What about the “Plant response rating, B. signalgrass” value (surinam grass; [4]) of the same molecule?
**A.** 4

**Q.** And the “B. signalgrass plant response rating” value (surinam grass; [5])?
**A.** 0

**Q.** And the “B. signalgrass plant response rating” value (surinam grass; [6])?
**A.** 2

**Q.** And the “Plant response rating, B. signalgrass” value (surinam grass; [7])?
**A.** 4

**Q.** What about the “Plant response rating, B. signalgrass” value (surinam grass; [8]) of the same molecule?
**A.** 9

**Q.** And the “Plant response rating, Soybean” value (soybean; [1])?
**A.** 0

**Q.** What about the “Plant response rating, Soybean” value (soybean; [2]) of the same molecule?
**A.** 0

**Q.** What about the “Soybean plant response rating” value (soybean; [3]) of the same molecule?
**A.** 0

**Q.** And the “Soybean plant response rating” value (soybean; [5])?
**A.** 0

**Q.** What about the “Soybean plant response rating” value (soybean; [6]) of the same molecule?
**A.** 0

**Q.** What about the “Plant response rating, Soybean” value (soybean; [7]) of the same molecule?
**A.** 0

**Q.** And the “Plant response rating, Soybean” value (soybean; [8])?
**A.** 0

**Q.** And the “Plant response rating, Morningglory” value (morningglory; [1])?
**A.** 0

**Q.** What about the “Plant response rating, Morningglory” value (morningglory; [2]) of the same molecule?
**A.** 3

**Q.** And the “Morningglory plant response rating” value (morningglory; [3])?
**A.** 6

**Q.** What about the “Plant response rating, Morningglory” value (morningglory; [4]) of the same molecule?
**A.** 6

**Q.** And the “Morningglory plant response rating” value (morningglory; [5])?
**A.** 0

**Q.** What about the “Morningglory plant response rating” value (morningglory; [6]) of the same molecule?
**A.** 0

**Q.** And the “Plant response rating, Morningglory” value (morningglory; [7])?
**A.** 0

**Q.** What about the “Plant response rating, Morningglory” value (morningglory; [8]) of the same molecule?
**A.** 0

**Q.** And the “Plant response rating, Wild oats” value (wild oat; [1])?
**A.** 0

**Q.** And the “Plant response rating, Wild oats” value (wild oat; [2])?
**A.** 0

**Q.** What about the “Wild oats plant response rating” value (wild oat; [3]) of the same molecule?
**A.** 0

**Q.** What about the “Wild oats plant response rating” value (wild oat; [5]) of the same molecule?
**A.** 0

**Q.** And the “Wild oats plant response rating” value (wild oat; [6])?
**A.** 0

**Q.** And the “Plant response rating, Wild oats” value (wild oat; [7])?
**A.** 3

**Q.** What about the “Plant response rating, Wild oats” value (wild oat; [8]) of the same molecule?
**A.** 6

**Q.** What about the “Plant response rating, Velvetleaf” value (velvetleaf; [1]) of the same molecule?
**A.** 0

**Q.** And the “Plant response rating, Velvetleaf” value (velvetleaf; [2])?
**A.** 3

**Q.** And the “Velvetleaf plant response rating” value (velvetleaf; [3])?
**A.** 3

**Q.** What about the “Velvetleaf plant response rating” value (velvetleaf; [5]) of the same molecule?
**A.** 0

**Q.** And the “Velvetleaf plant response rating” value (velvetleaf; [6])?
**A.** 0

**Q.** And the “Plant response rating, Velvetleaf” value (velvetleaf; [7])?
**A.** 0

**Q.** And the “Plant response rating, Velvetleaf” value (velvetleaf; [8])?
**A.** 0

**Q.** What about the “Plant response rating, Wheat” value (wheat; [1]) of the same molecule?
**A.** 0

**Q.** And the “Plant response rating, Wheat” value (wheat; [2])?
**A.** 0

**Q.** And the “Wheat plant response rating” value (wheat; [3])?
**A.** 0

**Q.** What about the “Wheat plant response rating” value (wheat; [5]) of the same molecule?
**A.** 0

**Q.** What about the “Wheat plant response rating” value (wheat; [6]) of the same molecule?
**A.** 0

**Q.** And the “Plant response rating, Wheat” value (wheat; [7])?
**A.** 0

**Q.** What about the “Plant response rating, Wheat” value (wheat; [8]) of the same molecule?
**A.** 2

**Q.** And the “Plant response rating, Ducksalad (0 to 10 scale, 0 is no effect, 10 is complete control)” value (duck salad; [9])?
**A.** 0

**Q.** And the “Ducksalad plant response rating (0 to 10 scale, 0 is no effect, 10 is complete control)” value (duck salad; [10])?
**A.** 0

**Q.** What about the “Ducksalad plant response rating” value (duck salad; [11]) of the same molecule?
**A.** 0

**Q.** And the “Ducksalad plant response rating” value (duck salad; [12])?
**A.** 0

**Q.** What about the “Plant response rating, Rape” value (rape; [1]) of the same molecule?
**A.** 0

**Q.** What about the “Plant response rating, Rape” value (rape; [2]) of the same molecule?
**A.** 0

**Q.** What about the “Rape plant response rating” value (rape; [3]) of the same molecule?
**A.** 0

**Q.** What about the “Plant response rating, Rape” value (rape; [4]) of the same molecule?
**A.** 0

**Q.** And the “Rape plant response rating” value (rape; [5])?
**A.** 0

**Q.** And the “Rape plant response rating” value (rape; [6])?
**A.** 0

**Q.** What about the “Plant response rating, Rape” value (rape; [7]) of the same molecule?
**A.** 3

**Q.** What about the “Plant response rating, Rape” value (rape; [8]) of the same molecule?
**A.** 6

**Q.** What about the “Plant response rating, Giant foxtail” value (giant foxtail; [1]) of the same molecule?
**A.** 0

**Q.** And the “Plant response rating, Giant foxtail” value (giant foxtail; [2])?
**A.** 0

**Q.** And the “Giant foxtail plant response rating” value (giant foxtail; [3])?
**A.** 0

**Q.** And the “Plant response rating, Giant foxtail” value (giant foxtail; [4])?
**A.** 4

**Q.** And the “Giant foxtail plant response rating” value (giant foxtail; [5])?
**A.** 9

**Q.** What about the “Giant foxtail plant response rating” value (giant foxtail; [6]) of the same molecule?
**A.** 9

**Q.** And the “Plant response rating, Giant foxtail” value (giant foxtail; [7])?
**A.** 10

**Q.** What about the “Plant response rating, Giant foxtail” value (giant foxtail; [8]) of the same molecule?
**A.** 9
